Tests used:
apo (a) = apo (a) secretion in primary cultures of Cynomolgus hepatocytes (ELISA); type: cell-based, Cynomolgus monkey; conditions: Macaca fascicularis, Hepatocyte, 6-24 hours, vs ethanol control, read-out: change in apo (a) secretion in culture medium, percentage of control
Protocol: The compounds of formula (I) were assayed for being able to effectively lower the production of apo (a) in primary cultures of Cynomolgus hepatocytes.
Hepatocytes were isolated from livers of male adult Cynomolgus monkeys by the two-step collagenase perfusion method according to C. Guguen-Guillouzo and A. Guillouzo “Methods for preparation of adult and fetal hepatocytes” p.1-12 in “Isolated and Cultured Hepatocytes”, les editions Inserm Paris and John Libbey Eurotext London (1986).
The viability of cells was determined by Trypan blue staining. The cells were then seeded at a density of 1.5-2.105 viable cells per 2 cm^2 in 24 well tissue culture plates in a volume of 500 μl per well of Williams E tissue culture medium containing 10% fetal calf serum. Cells were incubated for 6-24 hours at 37° C. in a CO2 incubator (5% CO2) in the presence of 20 μM of the test compounds dissolved in ethanol. Four wells were used for each compound. Nicotinic acid and steroid hormones were used as references to validate the assay system since they are known to decrease apo (a) in man. Control cells were incubated in the presence of ethanol only.
The amount of apo (a) secreted in culture medium was assayed directly by ELISA using a commercially available kit. Changes in apo (a) concentration in culture medium are given as the percentage of value measured for the control plates.

| Structure (SMILES) | melting point | inhibition at 20 µM (apo (a)) |
| --- | --- | --- |
| CCOP(=O)(OCC)C(CNc1cccnc1)c1cc(OC)c(O)c(OC)c1 (stereo not shown) | 152 to 154 °C | – |
| CCOP(=O)(OCC)C(CNc1nccs1)c1cc(C)c(O)c(OC)c1 (stereo not shown) | 85 to 87 °C | – |
| COc1cc(C(CNc2cccnc2)P(=O)(OC(C)C)OC(C)C)cc(OC)c1O (stereo not drawn) [Compound 33, diisopropyl α-(3,5-dimethoxy-4-hydroxyphenyl)-β-[N-(3-pyridyl)-amino]-ethylphosphonate] | 156 to 158 °C | 19 to 55% |
| COc1cc(C(CNc2cccnc2)P(=O)(OC(C)C)OC(C)C)cc(C)c1O (stereo not drawn) [Compound 35, diisopropyl α-(4-hydroxy-3-methoxy-5-methylphenyl)-β-[N-(3-pyridyl)amino]-ethylphosphonate] | – | 19 to 55% |
| CCOP(=O)(OCC)C(CNc1cnccn1)c1cc(OC)c(O)c(OC)c1 (stereo not drawn) [Compound 42, diethyl α-(3,5-dimethoxy-4-hydroxyphenyl)-β-[N-(pyrazinyl)-amino]-ethylphosphonate] | 147 to 148 °C | 19 to 55% |
| COc1cc(C(CNc2cnccn2)P(=O)(OC(C)C)OC(C)C)cc(OC)c1O (stereo not drawn) [Compound 43, diisopropyl α-(3,5-dimethoxy-4-hydroxyphenyl)-β-[N-(pyrazinyl)-amino]-ethylphosphonate] | 169 to 171 °C | 19 to 55% |
| CCOP(=O)(OCC)C(CNc1cnccn1)c1cc(C)c(O)c(OC)c1 (stereo not drawn) [Compound 44, diethyl α-(4-hydroxy-3-methoxy-5-methylphenyl)-β-[N-(pyrazinyl)-amino]-ethylphosphonate] | – | 19 to 55% |
| Cc1cc(C(CNc2cccnc2)P(=O)(OC(C)C)OC(C)C)cc(C)c1O (stereo not drawn) [Compound 47, diisopropyl α-(3,5-dimethyl-4-hydroxyphenyl)-β-[N-(3-pyridyl)-amino]-ethylphosphonate] | – | 19 to 55% |
| CCOP(=O)(OCC)C(CNc1ncccn1)c1cc(C)c(O)c(OC)c1 (stereo not drawn) [Compound 53, diethyl α-(4-hydroxy-3-methoxy-5-methylphenyl)-β-[N-(2-pyrimidinyl)-amino]-ethylphosphonate] | 133 to 136 °C | 19 to 55% |
| CCOc1cc(C(CNc2cccnc2)P(=O)(OCC)OCC)cc(C)c1O (stereo not drawn) [Compound 55, diethyl α-(3-ethoxy-4-hydroxy-5-methylphenyl)-β-[N-(3-pyridyl)-amino]-ethylphosphonate] | 155 to 156 °C | 19 to 55% |
| CCOP(=O)(OCC)C(CNc1nc2ccccc2s1)c1cc(C)c(O)c(OC)c1 (stereo not drawn) [Compound 81, diethyl α-(4-hydroxy-3-methoxy-5-methylphenyl)-β-[N-(2-benzothiazolyl)-amino]-ethylphosphonate] | – | 19 to 55% |
| CCOP(=O)(OCC)C(CNc1ccon1)c1cc(C)c(O)c(OC)c1 (stereo not drawn) [Compound 87, diethyl α-(4-hydroxy-3-methoxy-5-methylphenyl)-β-[N-(3-isoxazolyl)-amino]-ethylphosphonate] | – | 19 to 55% |
| CCOP(=O)(OCC)C(CNc1cnccn1)c1cc(C)c(O)c(C)c1 (stereo not drawn) [Example 25, Diethyl α-(3,5-dimethyl-4-hydroxyphenyl)-β-[N-(pyrazinyl)-amino]-ethylphosphonate] | – | 19 to 55% |
| CCOP(=O)(OCC)C(CNc1cnccn1)c1cc(C)c(O)c(C(C)(C)C)c1 (stereo not drawn) [Example 26, Diethyl α-(3-tert-butyl-4-hydroxy-5-methylphenyl)-β-[N-(pyrazinyl)-amino]-ethylphosphonate] | – | 19 to 55% |
